By Kd is commonly meant the constant that tells how readily two partners part at equilibrium. High values mean a looser complex, low ones a tighter complex.

Structures are written as SMILES.

Assay [1] addresses FGFR3-BAIAP2L1 Ba/F3 cells (Homo sapiens, UniProt P22607). As to the kind of experiment: Ba/F3 cell viability assay (CellTiter-Glo 2.0), FGFR3-BAIAP2L1 Ba/F3. It counts as cell-based. The conditions noted are these: for Ba/F3 FGFR1/FGFR3 Selectivity: FGFR3 > FGFR1 selectivity ratio in Ba/F3 FGFR fusion cell based assays; for IC50: read-out: Ba/F3 Cells FGFR3 (IC50 nM), FGFR3-BAIAP2L1 Ba/F3 cells, 48 hours, Cell Titer Glo 2.0. The text has this:
(§1) Experimental Purpose: Recombinant kinase fusions are transduced into parental Ba/F3, which becomes dependent upon this constitutive kinase activity for IL3-independent survival. Inhibition of kinase activity leads to cell death, which is monitored using CellTiter-Glo® 2.0 (Promega) which measures intracellular ATP concentration that in turn serves as a marker for viability. FGFR1-BCR Ba/F3 and FGFR3-BAIAP2L1 Ba/F3 were obtained from Advanced Cellular Dynamics (Seattle, WA)
(§2) Cell Viability Assay Procedure: Cell Titer-Glo® 2.0 Luminescent cell viability assay reagent was purchased from Promega (Madison, WI). FGFR1-BCR Ba/F3 and FGFR3-BAIAP2L1 Ba/F3 cells were cultured in RPMI1640 media supplemented with 10% fetal bovine serum. Cultures were maintained at 37° C. in a humidified atmosphere of 5% C02 and 95% air.
(§3) Cells were plated in 96-well clear bottom/white plates (Corning #3903) at 10,000 cells/well in 100 μl of media, incubated overnight. The next day, test compound DMSO stock solutions were made at 10 mM and 2 μM final concentration. Compounds were then added to cells in a 9-dose, 10-fold dilution series starting at 30 μM with an HP 300e Digital Dispenser (each dose was applied in triplicate). DMSO was backfilled to each well up to 301 nL total volume of test compound+DMSO, and a total of 301 nL DMSO was added to a control/no test compound well in triplicate. The cells in cell culture plates were incubated with the compounds at 37° C. and 5% C02 for 48 hours. Then 50 μl of Cell Titer Glo 2.0 reagent was added to each well of the cell culture plates. The contents were covered from light and mixed on an orbital shaker at room temperature for 10 min. Luminescence was recorded by a Synergy H1 Microplate Reader (Biotek, Winooski, VT). Cells were assessed as a percentage of DMSO only treated control cells. Curves were plotted and IC50 values were calculated using the GraphPad Prism 8 program based on a sigmoidal dose-response equation (4 parameter).

The target in a further assay is FGFR3 (V555M) (Homo sapiens (Human), UniProt P22607, V555M). The assay is described as follows: Kinase assay, binding constants (Kd), kinase-tagged T7 phage, qPCR. The conditions noted are these: V555M mutant. The essentials: (§4)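 Using T7 phage lysates from BL21-derived E. coli, compounds at 0.9% final DMSO competed for kinase binding to ligand-bearing magnetic beads. After elution, qPCR measured remaining kinase, and Kds were fitted by non-linear least squares with the Hill slope fixed at −1.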
FGFR3 (V555M), sequence (P22607 23-806 V555M): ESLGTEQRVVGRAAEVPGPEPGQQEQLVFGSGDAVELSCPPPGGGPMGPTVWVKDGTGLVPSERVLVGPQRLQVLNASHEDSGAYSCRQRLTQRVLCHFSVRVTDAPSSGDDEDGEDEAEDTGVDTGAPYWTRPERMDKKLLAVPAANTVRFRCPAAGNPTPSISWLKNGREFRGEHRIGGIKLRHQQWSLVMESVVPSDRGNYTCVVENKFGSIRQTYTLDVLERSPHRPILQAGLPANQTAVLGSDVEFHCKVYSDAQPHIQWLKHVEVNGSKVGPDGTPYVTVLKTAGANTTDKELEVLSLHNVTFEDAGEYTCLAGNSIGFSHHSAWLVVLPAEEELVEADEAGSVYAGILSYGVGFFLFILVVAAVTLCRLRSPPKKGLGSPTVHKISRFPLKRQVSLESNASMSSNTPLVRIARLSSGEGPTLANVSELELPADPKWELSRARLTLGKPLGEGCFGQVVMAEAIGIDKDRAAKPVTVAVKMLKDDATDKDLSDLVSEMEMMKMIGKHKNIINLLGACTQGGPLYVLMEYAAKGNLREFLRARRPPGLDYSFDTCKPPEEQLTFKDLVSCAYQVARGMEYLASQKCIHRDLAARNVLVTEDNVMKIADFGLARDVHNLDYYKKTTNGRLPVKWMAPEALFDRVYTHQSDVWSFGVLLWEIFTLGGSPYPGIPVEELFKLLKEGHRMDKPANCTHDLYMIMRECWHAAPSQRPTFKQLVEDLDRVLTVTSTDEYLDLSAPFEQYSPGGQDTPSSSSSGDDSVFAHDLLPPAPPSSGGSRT

For a further assay, the target named is FGFR1 (Homo sapiens (Human), UniProt P11362). The description is as above. Summed up:
as §4

The target in a further assay is FGFR4 (Homo sapiens (Human), UniProt P22455). Described as above. The essentials:
as §4

The next assay concerns the target FGFR2 (Homo sapiens (Human), UniProt P21802). Described as above. The essentials: as §4
The next assay deals with FGFR3 (Homo sapiens (Human), UniProt P22607). The assay is described as above. The essentials: as §4
FGFR3, sequence (P22607 23-806): as the sequence (P22607 23-806 V555M) above, with M533V counted along it
The target of another assay is FGFR1-BCR Ba/F3 cells (Homo sapiens, UniProt P11362). As to the kind of experiment: Ba/F3 cell viability assay (CellTiter-Glo 2.0), FGFR1-BCR Ba/F3. Particulars: read-out: Ba/F3 Cells FGFR1 (IC50 nM), 48 hours, Cell Titer Glo 2.0. It counts as cell-based.
FGFR1-BCR Ba/F3 cells, sequence (P11362 22-822 limits assumed, change not shown): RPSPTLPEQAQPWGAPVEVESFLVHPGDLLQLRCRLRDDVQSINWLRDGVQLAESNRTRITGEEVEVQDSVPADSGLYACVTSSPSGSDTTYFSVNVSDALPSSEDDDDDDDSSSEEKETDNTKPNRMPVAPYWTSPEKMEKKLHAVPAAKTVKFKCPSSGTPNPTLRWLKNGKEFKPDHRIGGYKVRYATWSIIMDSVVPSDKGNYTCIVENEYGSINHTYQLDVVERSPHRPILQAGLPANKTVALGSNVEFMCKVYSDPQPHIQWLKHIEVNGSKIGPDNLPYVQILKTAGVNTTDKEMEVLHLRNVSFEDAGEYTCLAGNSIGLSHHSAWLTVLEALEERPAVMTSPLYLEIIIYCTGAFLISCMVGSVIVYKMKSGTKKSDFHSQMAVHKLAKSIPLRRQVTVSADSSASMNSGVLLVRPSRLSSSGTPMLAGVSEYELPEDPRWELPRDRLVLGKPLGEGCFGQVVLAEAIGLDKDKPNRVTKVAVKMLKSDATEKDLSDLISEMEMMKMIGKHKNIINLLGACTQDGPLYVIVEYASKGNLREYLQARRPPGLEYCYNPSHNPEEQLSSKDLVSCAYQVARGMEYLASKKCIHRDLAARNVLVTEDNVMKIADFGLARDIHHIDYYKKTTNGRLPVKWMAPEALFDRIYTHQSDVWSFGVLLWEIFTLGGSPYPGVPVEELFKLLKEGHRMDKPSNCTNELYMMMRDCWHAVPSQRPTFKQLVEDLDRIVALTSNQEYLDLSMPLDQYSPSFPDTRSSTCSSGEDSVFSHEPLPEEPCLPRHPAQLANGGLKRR
From the text: as §1, §2, §3
(Cellular ATP, detected with luciferase, serves as a proxy for viable cell number.)

FGFR1, sequence (P11362 22-822): as the sequence (P11362 22-822 limits assumed, change not shown) above
FGFR2, sequence (P21802 22-821): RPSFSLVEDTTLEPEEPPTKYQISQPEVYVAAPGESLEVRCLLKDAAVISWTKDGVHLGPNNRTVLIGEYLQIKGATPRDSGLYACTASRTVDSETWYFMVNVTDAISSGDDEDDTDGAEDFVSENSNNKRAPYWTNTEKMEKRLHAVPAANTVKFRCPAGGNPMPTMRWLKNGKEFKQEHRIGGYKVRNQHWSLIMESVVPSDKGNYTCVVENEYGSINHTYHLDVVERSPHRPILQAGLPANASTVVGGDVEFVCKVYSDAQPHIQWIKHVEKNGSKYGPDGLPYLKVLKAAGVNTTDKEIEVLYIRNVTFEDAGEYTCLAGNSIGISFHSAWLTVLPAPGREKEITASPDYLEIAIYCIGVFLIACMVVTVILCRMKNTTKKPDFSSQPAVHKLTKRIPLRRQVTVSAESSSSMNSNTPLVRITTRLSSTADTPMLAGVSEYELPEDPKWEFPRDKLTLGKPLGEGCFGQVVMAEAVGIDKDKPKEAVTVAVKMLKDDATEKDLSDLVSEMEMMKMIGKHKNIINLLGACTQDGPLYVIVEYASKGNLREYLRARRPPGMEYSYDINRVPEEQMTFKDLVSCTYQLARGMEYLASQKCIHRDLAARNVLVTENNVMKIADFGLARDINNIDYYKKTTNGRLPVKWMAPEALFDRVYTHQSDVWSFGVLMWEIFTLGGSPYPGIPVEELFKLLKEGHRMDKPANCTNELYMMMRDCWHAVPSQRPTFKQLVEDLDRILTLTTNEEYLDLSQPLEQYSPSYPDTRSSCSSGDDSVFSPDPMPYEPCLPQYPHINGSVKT
FGFR3-BAIAP2L1 Ba/F3 cells, sequence (P22607 23-806 limits assumed, change not shown): as the sequence (P22607 23-806 V555M) above, with M533V counted along it
FGFR4, sequence (P22455 22-802): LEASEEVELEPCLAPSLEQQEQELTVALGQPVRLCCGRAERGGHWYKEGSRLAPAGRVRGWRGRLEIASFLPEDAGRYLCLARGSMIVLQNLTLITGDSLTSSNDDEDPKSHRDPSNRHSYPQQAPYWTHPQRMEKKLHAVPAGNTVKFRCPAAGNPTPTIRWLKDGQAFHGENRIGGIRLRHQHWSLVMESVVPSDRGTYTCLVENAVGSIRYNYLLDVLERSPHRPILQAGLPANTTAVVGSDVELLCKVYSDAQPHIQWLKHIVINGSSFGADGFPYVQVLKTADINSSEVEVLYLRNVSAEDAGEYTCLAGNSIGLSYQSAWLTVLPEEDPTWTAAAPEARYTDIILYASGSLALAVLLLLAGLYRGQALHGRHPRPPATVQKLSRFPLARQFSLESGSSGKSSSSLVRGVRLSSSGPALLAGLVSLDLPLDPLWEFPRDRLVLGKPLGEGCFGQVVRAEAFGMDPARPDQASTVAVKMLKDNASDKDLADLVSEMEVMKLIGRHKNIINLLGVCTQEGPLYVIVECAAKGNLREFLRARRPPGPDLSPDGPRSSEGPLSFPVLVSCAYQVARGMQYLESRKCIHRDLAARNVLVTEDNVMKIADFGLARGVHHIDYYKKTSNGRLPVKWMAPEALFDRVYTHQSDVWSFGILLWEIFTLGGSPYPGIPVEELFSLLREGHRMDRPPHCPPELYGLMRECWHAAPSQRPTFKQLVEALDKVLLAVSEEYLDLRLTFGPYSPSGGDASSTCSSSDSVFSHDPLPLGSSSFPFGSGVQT

Take `COC(=O)N1CCN(c2ccc(-c3n[nH]c4ccc(O[C@H](C)c5c(Cl)cncc5Cl)cc34)cn2)CC1` [Example 7, Methyl 4-[5-[5-[(1R)-1-(3,5-dichloro-4-pyridyl)ethoxy]-1H-indazol-3-yl]-2-pyridyl]piperazine-1-carboxylate]: in assay [1], the “Ba/F3 FGFR1/FGFR3 Selectivity” value was determined as 15. In addition, the IC50 in assay [1] was 20 to 100 nM; on FGFR1-BCR Ba/F3 cells, > 300 nM. Also, the Kd at FGFR3 (V555M) lay in the range of 1 to 20 nM; on FGFR1 it was 1 to 20 nM; on FGFR4 it was 1 to 20 nM; on FGFR2 it was 20 to 100 nM; on FGFR3 it was 1 to 20 nM.
`C[C@@H](Oc1ccc2[nH]nc(-c3ccc(Cl)nc3)c2c1)c1c(Cl)cncc1Cl` [Example 18, 3-(6-Chloro-3-pyridyl)-5-[(1R)-1-(3,5-dichloro-4-pyridyl)ethoxy]-1H-indazole]: in assay [1], the “Ba/F3 FGFR1/FGFR3 Selectivity” value was found to be 21. Also, the IC50 in assay [1] was 20 to 100 nM; on FGFR1-BCR Ba/F3 cells, > 300 nM. Moreover, the Kd at FGFR3 (V555M) lay within 1 to 20 nM; on FGFR1, 20 to 100 nM; at FGFR4 it was 1 to 20 nM; at FGFR2, 20 to 100 nM; on FGFR3 it was 1 to 20 nM.
On to `C[C@@H](Oc1ccc2[nH]nc(-c3ccc(F)nc3)c2c1)c1c(Cl)cncc1Cl` [Example 25, 5-[(1R)-1-(3,5-Dichloro-4-pyridyl)ethoxy]-3-(6-fluoro-3-pyridyl)-1H-indazole], for which, in assay [1], the “Ba/F3 FGFR1/FGFR3 Selectivity” value came to 22. Besides, the IC50 in assay [1] was 20 to 100 nM; at FGFR1-BCR Ba/F3 cells, > 300 nM. Also, the Kd on FGFR3 (V555M) fell in the range of 1 to 20 nM; at FGFR1, 20 to 100 nM; on FGFR4 it was 20 to 100 nM; at FGFR2, 20 to 100 nM; on FGFR3 it was 1 to 20 nM.
`C[C@@H](Oc1ccc2[nH]nc(-c3ccc(N4CCCNC(=O)C4)nc3)c2c1)c1c(Cl)cncc1Cl` [Example 35, 4-[5-[5-[(1R)-1-(3,5-dichloro-4-pyridyl)ethoxy]-1H-indazol-3-yl]-2-pyridyl]-1,4-diazepan-2-one]: the “Ba/F3 FGFR1/FGFR3 Selectivity” value in assay [1] came to 6. The IC50 is 20 to 100 nM in assay [1] and > 300 nM at FGFR1-BCR Ba/F3 cells. Further, the Kd lay within 1 to 20 nM at FGFR3 (V555M); 20 to 100 nM on FGFR1; 1 to 20 nM on FGFR4; 20 to 100 nM on FGFR2; 1 to 20 nM on FGFR3.
Regarding `C[C@@H](Oc1ccc2[nH]nc(-c3ccc(N4CCNC(=O)C4)nc3)c2c1)c1c(Cl)cncc1Cl` [Example 36, 4-[5-[5-[(1R)-1-(3,5-dichloro-4-pyridyl)ethoxy]-1H-indazol-3-yl]-2-pyridyl]piperazin-2-one], in assay [1], the “Ba/F3 FGFR1/FGFR3 Selectivity” value amounted to 23. Besides, the IC50 lay within 1 to 20 nM in assay [1] and 20 to 100 nM on FGFR1-BCR Ba/F3 cells. Further, the Kd on FGFR3 (V555M), on FGFR1, at FGFR4, at FGFR2 and on FGFR3 was 1 to 20 nM each time.
As to `C[C@@H](Oc1ccc2[nH]nc(-c3ccc(N4CCNCC4=O)nc3)c2c1)c1c(Cl)cncc1Cl` [Example 37, 1-[5-[5-[(1R)-1-(3,5-dichloro-4-pyridyl)ethoxy]-1H-indazol-3-yl]-2-pyridyl]piperazin-2-one], in assay [1], the “Ba/F3 FGFR1/FGFR3 Selectivity” value came to 12. The IC50 in assay [1] was 1 to 20 nM; at FGFR1-BCR Ba/F3 cells, 100 to 300 nM. Besides, the Kd at FGFR3 (V555M) lay within 1 to 20 nM; at FGFR1, 20 to 100 nM; on FGFR4, 1 to 20 nM; on FGFR2 it was 20 to 100 nM; on FGFR3 it was 1 to 20 nM.
For the molecule `C[C@@H](Oc1ccc2[nH]nc(-c3ccc(N4CCN(C)CC4=O)nc3)c2c1)c1c(Cl)cncc1Cl` [Example 38, 1-[5-[5-[(1R)-1-(3,5-dichloro-4-pyridyl)ethoxy]-1H-indazol-3-yl]-2-pyridyl]-4-methyl-piperazin-2-one], the “Ba/F3 FGFR1/FGFR3 Selectivity” value in assay [1] is listed as 21. For the same molecule, the IC50 was in the range of 1 to 20 nM in assay [1] and 100 to 300 nM at FGFR1-BCR Ba/F3 cells. Moreover, the Kd was 1 to 20 nM at FGFR3 (V555M); 20 to 100 nM at FGFR1; 1 to 20 nM on FGFR4; 20 to 100 nM at FGFR2; 1 to 20 nM on FGFR3.
Take `C[C@@H]1CCN1c1ncc(-c2n[nH]c3cc(Cl)c(O[C@H](C)c4c(Cl)cncc4Cl)cc23)cc1C#N` [Example 374, 5-(6-chloro-5-((R)-1-(3,5-dichloropyridin-4-yl)ethoxy)-1H-indazol-3-yl)-2-((R)-2-methylazetidin-1-yl)nicotinonitrile]: the Kd on FGFR3 (V555M) was 20 to 100 nM; at FGFR1, > 300 nM; at FGFR4, 20 to 100 nM; at FGFR2 it was > 300 nM; at FGFR3, 100 to 300 nM.
Take `COc1cc2[nH]nc(-c3cnc(N4CC[C@@H]4C)c(S(C)(=O)=O)c3)c2cc1O[C@H](C)c1c(Cl)cncc1Cl` [Example 375, 5-((R)-1-(3,5-dichloropyridin-4-yl)ethoxy)-6-methoxy-3-(6-((S)-2-methylazetidin-1-yl)-5-(methylsulfonyl)pyridin-3-yl)-1H-indazole]: the Kd was 20 to 100 nM on FGFR3 (V555M); > 300 nM on FGFR1; 1 to 20 nM at FGFR4; > 300 nM on FGFR2; 100 to 300 nM at FGFR3.
Regarding `COc1cc2[nH]nc(-c3cnc(N4CC(C)(C)C4)c(S(C)(=O)=O)c3)c2cc1O[C@H](C)c1c(Cl)cncc1Cl` [Example 376, (R)-5-(1-(3,5-dichloropyridin-4-yl)ethoxy)-3-(6-(3,3-dimethylazetidin-1-yl)-5-(methylsulfonyl)pyridin-3-yl)-6-methoxy-1H-indazole], the Kd is 20 to 100 nM at FGFR3 (V555M); > 300 nM on FGFR1; 1 to 20 nM at FGFR4; 100 to 300 nM on FGFR2; 20 to 100 nM at FGFR3.
`C[C@@H](Oc1cc2c(-c3cnc(N4CCC4)c(C#N)c3)n[nH]c2cc1Cl)c1c(Cl)cncc1Cl` [Example 377, 2-(azetidin-1-yl)-5-[6-chloro-5-[(1R)-1-(3,5-dichloro-4-pyridyl)ethoxy]-1H-indazol-3-yl]pyridine-3-carbonitrile]: the Kd at FGFR3 (V555M) is 20 to 100 nM; at FGFR1 it was > 300 nM; on FGFR4 it was 1 to 20 nM; at FGFR2 it was > 300 nM; on FGFR3 it was 100 to 300 nM.
Turning to `C[C@@H](Oc1cc2c(-c3cnc(N4CC5(CCS(=O)(=O)C5)C4)c(C#N)c3)n[nH]c2cc1F)c1c(Cl)cncc1Cl` [Example 378, 5-[5-[(1R)-1-(3,5-dichloro-4-pyridyl)ethoxy]-6-fluoro-1H-indazol-3-yl]-2-(6,6-dioxo-6λ^6-thia-2-azaspiro[3.4]octan-2-yl)pyridine-3-carbonitrile], the Kd lay within 1 to 20 nM at FGFR3 (V555M); 100 to 300 nM at FGFR1; 1 to 20 nM at FGFR4; 20 to 100 nM at FGFR2; 1 to 20 nM at FGFR3.
Regarding `Cc1ncc(Cl)c([C@@H](C)Oc2cc3c(-c4cnc(N5CC6(C5)CN(S(C)(=O)=O)C6)c(C#N)c4)n[nH]c3cc2F)c1Cl` [Example 379, 5-[5-[(1R)-1-(3,5-dichloro-2-methyl-4-pyridyl)ethoxy]-6-fluoro-1H-indazol-3-yl]-2-(2-methylsulfonyl-2,6-diazaspiro[3.3]heptan-6-yl)pyridine-3-carbonitrile], the Kd at FGFR3 (V555M) fell in the range of 1 to 20 nM; at FGFR1, 100 to 300 nM; at FGFR4, 1 to 20 nM; at FGFR2, 100 to 300 nM; at FGFR3, 20 to 100 nM.
In the case of `C[C@@H](Oc1cc2c(-c3cnc(N4CC5(CCCN(S(C)(=O)=O)C5)C4)c(C#N)c3)n[nH]c2cc1F)c1c(Cl)cncc1Cl` [Example 380, 5-[5-[(1R)-1-(3,5-dichloro-4-pyridyl)ethoxy]-6-fluoro-1H-indazol-3-yl]-2-(8-methylsulfonyl-2,8-diazaspiro[3.5]nonan-2-yl)pyridine-3-carbonitrile], the Kd at FGFR3 (V555M) is 20 to 100 nM; at FGFR1 it was 100 to 300 nM; on FGFR4, 1 to 20 nM; on FGFR2, > 300 nM; at FGFR3, 20 to 100 nM.

For the origin of these results see patent US20240109865A1, “INDAZOLE COMPOUNDS AS KINASE INHIBITORS” (TYRA BIOSCIENCES, INC., priority 2020, published 2024).
